From patent publication US20160199463A1, “HDAC2 DEFENDS VASCULAR ENDOTHELIUM FROM INJURY” (The Johns Hopkins University, priority 2014, published 2016)
Entries after “also recorded” stand apart in the source; their conditions may differ. Where two headings read alike, the source gives them in different places.

Experiments:
[1] = tested on: HDAC4, 5, 6, 7, and 8; settings: cited from earlier work
[2] = tested on: aortic rings from Arg2−/− mice; experiment: Force tension (wire) myography, vascular relaxation of aortic rings from Arg2-/- mice; assay type: cell-based, mouse; settings: Mus musculus, 18 h; read-out: Emax endothelium-dependent relaxation
Procedure: (§1) Mouse aorta was isolated and cleaned in ice-cold Krebs-Ringer-bicarbonate solution containing the following (in mM): 118.3 NaCl, 4.7 KCl, 1.6 CaCl2, 1.2 KH2 PO4, 25 NaHCO3, 1.2 MgSO4, and 11.1 dextrose. The aorta was immersed in a bath filled with constantly oxygenated Krebs buffer at 37° C. Equal size thoracic aortic rings (2 mm) were mounted using a microscope, ensuring no damage to the smooth muscle or endothelium. One end of the aortic rings was connected to a transducer, and the other to a micromanipulator. Aorta was passively stretched to an optimal resting tension using the micromanipulator, after which a dose of 60 mM KCl was administered, and repeated after a wash with Krebs buffer. After these washes, all vessels were allowed to equilibrate for 20-30 min in the presence of indomethacin (3 μM). Phenylephrine (1 μM) was administered to induce vasoconstriction. A dosedependent response (1 nM to 10 μM), with the muscarinic agonist, ACH or nitric oxide donor, SNP, was then performed as necessary. The responses were repeated in the presence of inhibitors. Relaxation responses were calculated as a percentage of tension following pre-constriction. Sigmoidal dose-response curves were fitted to data with the minimum constrained to 0. Two to four rings were isolated from each animal and the number of animals in each group (n) was 6.

[3] = tested on: Arg2; experiment: Arg2 protein expression in HAECs (Western blot); assay type: cell-based, human
Procedure: After 48 hrs of HAEC cells transfection, cells were lysed in ice cold RIPA lysis buffer consisting of 20 mM Tris-HCl at pH 7.5, 150 mM NaCl, 1 mM EDTA, 1 mM EGTA, 1% NP40, 1% sodium deoxycholate, 1 mM Na3VO4, 2.5 mM sodium pyrophosphate, 1 mM 3-glycerophosphate, 1 μg/mL leupeptin, and a 1:1000 diluted protease inhibitor cocktail (Sigma). For immunoprecipitation studies, whole cell lysate lysates were centrifuged at 14,000×g and supernatants were precleared by incubation with Protein A/G-agarose beads for 2 h at 4° C. with rocking. Agarose beads were then pelleted by centrifugation at 1,000×g. FLAG-Arg2 in precleared lysates were immunoprecipitated by incubation overnight at 4° C. with rocking following addition of anti-FLAG antibody (10 μl). Immune complexes were eluted in 2×SDS sample buffer by boiling for 5 minutes before loading into SDS-PAGE. Western blotting analysis was performed by transferring the SDS gel onto a PVDF membrane and visualized using secondary antibodies conjugated to alkaline phosphatases.

[4] = tested on: aortic rings of wild-type mice; experiment: Force tension (wire) myography, vascular relaxation of isolated wild-type mouse aortic rings; assay type: cell-based; set-up: Emax: dose or concentration left out as unconfirmed
Procedure: as §1

[5] = tested on: HDAC1A; settings: cited from earlier work

| Structure (SMILES) | activity to HDAC4, 5, 6, 7, and 8 [1] | Emax at 1 µM [2] [%] | endothelial Arg2 expression, class-specific HDAC inhibitors [3] | endothelium-independent responses to SNP, dose-dependent vasorelaxation ([4]; MGCD0103, MLN4924 or both, FIG. 29B) | Ach response in WT aorta ([4]; MGCD0103 preincubation 48 hours) | Emax ([4]; Mus musculus, 18 h, read-out: Emax endothelial-dependent vascular relaxation (acetylcholine)) [%] | SNP-mediated (endothelium-independent) vasorelaxation versus vehicle-only control ([4]; TSA 200 nmol/L or MGCD0103 1 μmol/L, 18 hours) | IC50 [5] [nM] | endothelial Arg2 expression, class-specific HDAC inhibitors ([3]; MS275 2 μmol/L, CI994 1 μmol/L, MC1568 0.5 μmol/L, PC34051 100 nmol/L, MGCD0103 1 μmol/L) |
| --- | --- | --- | --- | --- | --- | --- | --- | --- | --- |
| Nc1ccccc1NC(=O)c1ccc(CNc2nccc(-c3cccnc3)n2)cc1 [MGCD0103, Mocetinostat] | selectivity against HDAC2, 3, and 11, and no | 62.4 ± 16.5 | upregulate | no significant differences | significant attenuation | 42.7 ± 8.5 | no significant difference; also recorded: unaffected |  |  |
| Cn1c(/C=C/C(=O)NO)ccc1/C=C/C(=O)c1cccc(F)c1 [MC1658] |  |  |  |  |  |  |  | 100 | no substantial effects |
